Legend:
[1] = refractive index (Na D-line) (dimensionless); xn = mol fraction of the nth substance listed; details: 100.8 kPa, Liquid, Standard Abbe refractometry
[2] = xn = mol fraction of the nth substance listed; details: 100.8 kPa, Liquid; for viscosity: Capillary tube (Ostwald / Ubbelohde) method

CC(C)CC(C)(C)C [2,2,4-trimethylpentane] + CC(C)=O
Details | mass density, 288.15 K [kg/m3] | mass density, 298.15 K [kg/m3] | mass density, 308.15 K [kg/m3] | refractive index, 288.15 K | refractive index, 298.15 K | refractive index, 308.15 K | viscosity, 288.15 K [mPa·s] | viscosity, 298.15 K [mPa·s] | viscosity, 308.15 K [mPa·s]
[1], x2 = 0 | – | – | – | 1.39404 | 1.389 | 1.38395 | – | – | –
[1], x2 = 0.0499 | – | – | – | 1.39283 | 1.38765 | 1.38256 | – | – | –
[1], x2 = 0.1 | – | – | – | 1.39158 | 1.38634 | 1.38119 | – | – | –
[1], x2 = 0.15 | – | – | – | 1.39031 | 1.38501 | 1.37981 | – | – | –
[1], x2 = 0.2 | – | – | – | 1.38905 | 1.38374 | 1.37848 | – | – | –
[1], x2 = 0.25 | – | – | – | 1.38769 | 1.3824 | 1.3771 | – | – | –
[1], x2 = 0.3 | – | – | – | 1.3864 | 1.3811 | 1.37574 | – | – | –
[1], x2 = 0.35 | – | – | – | 1.38509 | 1.37975 | 1.37434 | – | – | –
[1], x2 = 0.4 | – | – | – | 1.38374 | 1.37833 | 1.3729 | – | – | –
[1], x2 = 0.45 | – | – | – | 1.38233 | 1.37687 | 1.37142 | – | – | –
[1], x2 = 0.5 | – | – | – | 1.38086 | 1.37538 | 1.36989 | – | – | –
[1], x2 = 0.55 | – | – | – | 1.37934 | 1.37379 | 1.36831 | – | – | –
[1], x2 = 0.6 | – | – | – | 1.37774 | 1.37219 | 1.36666 | – | – | –
[1], x2 = 0.65 | – | – | – | 1.37606 | 1.3705 | 1.36495 | – | – | –
[1], x2 = 0.7 | – | – | – | 1.3743 | 1.3687 | 1.36314 | – | – | –
[1], x2 = 0.75 | – | – | – | 1.37243 | 1.36683 | 1.36126 | – | – | –
[1], x2 = 0.8 | – | – | – | 1.37045 | 1.36486 | 1.35931 | – | – | –
[1], x2 = 0.85 | – | – | – | 1.36839 | 1.36279 | 1.35726 | – | – | –
[1], x2 = 0.9 | – | – | – | 1.36624 | 1.36064 | 1.3551 | – | – | –
[1], x2 = 0.95 | – | – | – | 1.36394 | 1.35838 | 1.35285 | – | – | –
[2], x2 = 0 | 695.95 | 687.74 | 679.41 | – | – | – | 0.537 | 0.48 | 0.432
[2], x2 = 0.0499 | 697.34 | 688.89 | 680.44 | – | – | – | 0.519 | 0.465 | 0.42
[2], x2 = 0.1 | 698.86 | 690.36 | 681.77 | – | – | – | 0.505 | 0.452 | 0.408
[2], x2 = 0.15 | 700.68 | 692.07 | 683.36 | – | – | – | 0.492 | 0.44 | 0.397
[2], x2 = 0.2 | 702.68 | 693.98 | 685.16 | – | – | – | 0.479 | 0.429 | 0.387
[2], x2 = 0.25 | 705.09 | 696.24 | 687.26 | – | – | – | 0.468 | 0.419 | 0.378
[2], x2 = 0.3 | 707.68 | 698.7 | 689.56 | – | – | – | 0.456 | 0.409 | 0.369
[2], x2 = 0.35 | 710.55 | 701.44 | 692.21 | – | – | – | 0.446 | 0.399 | 0.361
[2], x2 = 0.4 | 713.76 | 704.51 | 695.1 | – | – | – | 0.436 | 0.39 | 0.353
[2], x2 = 0.45 | 717.31 | 707.86 | 698.29 | – | – | – | 0.426 | 0.382 | 0.346
[2], x2 = 0.5 | 721.15 | 711.61 | 701.91 | – | – | – | 0.416 | 0.374 | 0.338
[2], x2 = 0.55 | 725.46 | 715.73 | 705.86 | – | – | – | 0.407 | 0.366 | 0.332
[2], x2 = 0.6 | 730.17 | 720.32 | 710.3 | – | – | – | 0.398 | 0.358 | 0.325
[2], x2 = 0.65 | 735.45 | 725.44 | 715.27 | – | – | – | 0.389 | 0.35 | 0.318
[2], x2 = 0.7 | 741.35 | 731.16 | 720.79 | – | – | – | 0.38 | 0.343 | 0.312
[2], x2 = 0.75 | 747.84 | 737.51 | 727.01 | – | – | – | 0.372 | 0.336 | 0.306
[2], x2 = 0.8 | 755.3 | 744.71 | 733.99 | – | – | – | 0.364 | 0.329 | 0.299
[2], x2 = 0.85 | 763.58 | 752.89 | 742.02 | – | – | – | 0.356 | 0.322 | 0.293
[2], x2 = 0.9 | 773.12 | 762.22 | 751.12 | – | – | – | 0.348 | 0.315 | 0.287
[2], x2 = 0.95 | 784.18 | 773.02 | 761.68 | – | – | – | 0.341 | 0.309 | 0.281

Reference: the NIST ThermoML archive (doi:10.1021/je050010l)
